Legend:
[1] = Tested for inhibitory activity against elastase.
Prothrombin = Prothrombin (Homo sapiens, UniProt P00734); assay: Tested for inhibitory activity against Thrombin.

CC(=O)OCC(=O)N1C(=O)C[C@@H]2[C@@H]1CCN2C(=O)OCc1ccccc1
IC50 [1]: 7.58 µM | IC50 (Prothrombin): 6.2 µM

Reference: ChEMBL document CHEMBL1132953, “Design and synthesis of pyrrolidine-5,5-trans-lactams (5-oxo-hexahydro-pyrrolo[3,2-b]pyrroles) as novel mechanism-based inhibitors of human cytomegalovirus protease. 1. The alpha-methyl-trans-lactam template” (J Med Chem, 2000)
